# Data as given in US20190315806A1, “POLYMYXIN DERIVATIVE, PREPARATION METHOD AND APPLICATION THEREOF” (priority 2016, published 2019).
# Where two headings read alike, the source gives them in different places. Where a SMILES comes first, the peptide text is derived from it. Bridges are numbered along the chain shown (N, C = ends). [ ]: non-standard residue; d: D form. The star is where a group is joined. dPhe(4-tBu) = CC(C)(C)c1ccc(C[C@@H](N)C(=O)O)cc1; dBpa = N[C@H](Cc1ccc(C(=O)c2ccccc2)cc1)C(=O)O; dPhe(4-Me) = Cc1ccc(C[C@@H](N)C(=O)O)cc1; Heptanoyl(6-Me) = CC(C)CCCCC(=O)*; X2 = CC[C@H](C)CCCCC(=O)*; dDab = NCC[C@@H](N)C(=O)O; Octanoyl = CCCCCCCC(=O)*; Dab = NCC[C@H](N)C(=O)O
# Experiments:
# Format in all cases: cell-based
# [1] = tested on: Acinetobacter baumannii ATCC 19606
# Experimental: (§1) The minimum inhibitory concentration (MIC) was determined by means of dish double dilution method using a Multipoint inoculator according to the CLSI recommended method. The compounds of the present invention (for example, the compounds prepared in the Embodiments) and the reference substances were diluted twice each time with the broth into various desired concentrations, and appropriate amounts were added to the dishes. Agar medium is melted, and then quantitatively injected into the dish containing the drug solution, and mixed. The final concentrations of the compounds of the invention (e.g., the compounds prepared in the Embodiments) and the controls were 0.03, 0.06, 0.125, 0.25 . . . 128 μg/mL, respectively. The test bacteria were cultured overnight with nutrient broth, brain heart infusion or HTM broth. During the tests, the bacterial solutions were diluted appropriately, and the test bacteria (inoculation amount 10^4 CFU/dot) were inoculated on the surface of the drug-containing agar by a multi-point inoculator. After drying, the bacterial was incubated for 18 to 24 hours at 35° C., the results were observed, the minimum concentrations of the compounds of the present invention (for example, the compounds prepared in the Embodiments) and the controls contained in the dishes with no growth of colonies were MICs.
# (§2) The strains used in the antibacterial activity experiments were from the American Type Culture Collection (ATCC) and clinical isolates.
# (§3) The strains used for the experiments on antibacterial activity included Escherichia coli ATCC 25922, Klebsiella pneumoniae ATCC BAA-2146 (NDM-1), Pseudomonas aeruginosa ATCC 27853, Acinetobacter baumannii ATCC 19606 and Staphylococcus epidermidis ATCC 12228.
# (§4) Tested samples: polymyxin derivatives prepared according to the technical scheme of the present invention;
# (§5) Controls: polymyxin B sulfate and colistin (polymyxin E sulfate).
# [2] = tested on: Escherichia coli ATCC 25922
# Experimental: as §1, §2, §3, §4, §5
# [3] = tested on: Pseudomonas aeruginosa ATCC 27853
# Experimental: as §1, §2, §3, §4, §5
# [4] = tested on: Staphylococcus epidermidis ATCC 12228
# Experimental: as §1, §2, §3, §4, §5
# [5] = tested on: Klebsiella pneumoniae ATCC BAA-2146 (NDM-1); assay: Antibacterial activity, MIC by dish double dilution method
# Experimental: as §1, §2, §3, §4, §5
# [6] = agar dilution, 10^4 CFU/dot, 18 to 24 hours at 35° C.
MIC A. baumannii ATCC 19606 ([1]; ATCC 19606) [µg/mL],MIC E. coli ATCC 25922 ([2]; ATCC 25922) [µg/mL],MIC P. aeruginosa ATCC 27853 ([3]; ATCC 27853) [µg/mL],MIC S. epidermidis ATCC 12228 ([4]; ATCC 12228) [µg/mL],MIC K. pneumoniae ATCC BAA-2146 (NDM-1) ([5]; ATCC BAA-2146) [µg/mL],Structure (SMILES),"MIC A. baumannii ATCC 19606 [1, 6] [µg/mL]","MIC E. coli ATCC 25922 [2, 6] [µg/mL]","MIC P. aeruginosa ATCC 27853 [3, 6] [µg/mL]","MIC S. epidermidis ATCC 12228 [4, 6] [µg/mL]","MIC K. pneumoniae ATCC BAA-2146 (NDM-1) [5, 6] [µg/mL]"
2,1,2,16,2,"CCOc1ccc(C[C@H]2NC(=O)[C@H](CCN)NC(=O)[C@@H](NC(=O)[C@H](CCN)NC(=O)[C@@H](NC(=O)[C@H](CCN)NC(=O)CCCC[C@@H](C)CC)[C@@H](C)O)CCNC(=O)[C@H]([C@@H](C)O)NC(=O)[C@H](CCN)NC(=O)[C@H](CCN)NC(=O)[C@H](CC(C)C)NC2=O)cc1 [Compound 25, (S)-6-methyloctanoyl-Dab-Thr-Dab-ring(4-10)[Dab-Dab-D-Phe(4-OEt)-Lue-Dab-Dab-Thr]] (X2-[Dab]T[Dab][Dab][Dab][dY](Et)L[Dab][Dab]T; lactam 4-C)",–,–,–,–,–
0.5,1,2,8,2,"CC[C@H](C)CCCCC(=O)N[C@@H](CCN)C(=O)N[C@H](C(=O)N[C@@H](CCN)C(=O)N[C@H]1CCNC(=O)[C@H]([C@@H](C)O)NC(=O)[C@H](CCN)NC(=O)[C@H](CCN)NC(=O)[C@H](CC(C)C)NC(=O)[C@@H](Cc2ccc(C)cc2)NC(=O)[C@H](CCN)NC1=O)[C@@H](C)O [Compound 26, (S)-6-methyloctanoyl-Dab-Thr-Dab-ring(4-10)[Dab-Dab-D-Phe(4-CH3)-Lue-Dab-Dab-Thr]] (X2-[Dab]T[Dab][Dab][Dab][dPhe(4-Me)]L[Dab][Dab]T; lactam 4-C)",–,–,–,–,–
8,2,4,8,4,"CC[C@H](C)CCCCC(=O)N[C@@H](CCN)C(=O)N[C@H](C(=O)N[C@@H](CCN)C(=O)N[C@H]1CCNC(=O)[C@H]([C@@H](C)O)NC(=O)[C@H](CCN)NC(=O)[C@H](CCN)NC(=O)[C@H](CC(C)C)NC(=O)[C@@H](Cc2ccc(C(C)(C)C)cc2)NC(=O)[C@H](CCN)NC1=O)[C@@H](C)O [Compound 27, (S)-6-methyloctanoyl-Dab-Thr-Dab-ring(4-10)[Dab-Dab-D-Phe(4-tBu)-Lue-Dab-Dab-Thr]] (X2-[Dab]T[Dab][Dab][Dab][dPhe(4-tBu)]L[Dab][Dab]T; lactam 4-C)",–,–,–,–,–
0.5,0.5,1,>128,0.5,"CCCCCCCC(=O)N[C@@H](CCN)C(=O)N[C@H](C(=O)N[C@H](CCN)C(=O)N[C@H]1CCNC(=O)[C@H]([C@@H](C)O)NC(=O)[C@H](CCN)NC(=O)[C@H](CCN)NC(=O)[C@H]([C@@H](C)O)NC(=O)[C@@H](CC(C)C)NC(=O)[C@H](CCN)NC1=O)[C@@H](C)O [Compound 32, octanoyl-Dab-Thr-D-Dab-ring(4-10)[Dab-Dab-D-Leu-Thr-Dab-Dab-Thr]] (Octanoyl-[Dab]T[dDab][Dab][Dab][dL]T[Dab][Dab]T; lactam 4-C)",–,–,–,–,–
0.06,0.12,2,>128,0.5,"CCCCCCCC(=O)N[C@@H](CCN)C(=O)N[C@H](C(=O)N[C@H](CO)C(=O)N[C@H]1CCNC(=O)[C@H]([C@@H](C)O)NC(=O)[C@H](CCN)NC(=O)[C@H](CCN)NC(=O)[C@H]([C@@H](C)O)NC(=O)[C@@H](CC(C)C)NC(=O)[C@H](CCN)NC1=O)[C@@H](C)O [Compound 60, octanoyl-Dab-Thr-D-Ser-ring(4-10)[Dab-Dab-D-Leu-Thr-Dab-Dab-Thr]] (Octanoyl-[Dab]T[dS][Dab][Dab][dL]T[Dab][Dab]T; lactam 4-C)",–,–,–,–,–

# Second part, the molecule before the results:
Structure (SMILES),MIC A. baumannii ATCC 19606 ([1]; ATCC 19606) [µg/mL],MIC E. coli ATCC 25922 ([2]; ATCC 25922) [µg/mL],MIC P. aeruginosa ATCC 27853 ([3]; ATCC 27853) [µg/mL],MIC S. epidermidis ATCC 12228 ([4]; ATCC 12228) [µg/mL],MIC K. pneumoniae ATCC BAA-2146 (NDM-1) ([5]; ATCC BAA-2146) [µg/mL],"MIC A. baumannii ATCC 19606 [1, 6] [µg/mL]","MIC E. coli ATCC 25922 [2, 6] [µg/mL]","MIC P. aeruginosa ATCC 27853 [3, 6] [µg/mL]","MIC S. epidermidis ATCC 12228 [4, 6] [µg/mL]","MIC K. pneumoniae ATCC BAA-2146 (NDM-1) [5, 6] [µg/mL]"
"CC[C@H](C)CCCCC(=O)N[C@@H](CCN)C(=O)N[C@H](C(=O)N[C@@H](CCN)C(=O)N[C@H]1CCNC(=O)[C@H]([C@@H](C)O)NC(=O)[C@H](CCN)NC(=O)[C@H](CCN)NC(=O)[C@H](CC(C)C)NC(=O)[C@@H](Cc2ccc(C(=O)c3ccccc3)cc2)NC(=O)[C@H](CCN)NC1=O)[C@@H](C)O [Compound 29, (S)-6-methyloctanoyl-Dab-Thr-Dab-ring(4-10)[Dab-Dab-D-Phe(4-benzoyl)-Lue-Dab-Dab-Thr]] (X2-[Dab]T[Dab][Dab][Dab][dBpa]L[Dab][Dab]T; lactam 4-C)",1,2,4,16,2,–,–,–,–,–
"CCCCCCCC(=O)N[C@@H](CCN)C(=O)N[C@H](C(=O)N[C@@H](CO)C(=O)N[C@H]1CCNC(=O)[C@H]([C@@H](C)O)NC(=O)[C@H](CCN)NC(=O)[C@H](CCN)NC(=O)[C@H](CC(C)C)NC(=O)[C@@H](Cc2ccccc2)NC(=O)[C@H](CCN)NC1=O)[C@@H](C)O [Compound 54, octanoyl-Dab-Thr-Ser-ring(4-10)[Dab-Dab-D-Phe-Leu-Dab-Dab-Thr]] (Octanoyl-[Dab]TS[Dab][Dab][dF]L[Dab][Dab]T; lactam 4-C)",0.5,0.5,1,64,1,–,–,–,–,–
"CC[C@H](C)CCCCC(=O)N[C@@H](CCN)C(=O)N[C@H](C(=O)N[C@@H](CCN)C(=O)N[C@H]1CCNC(=O)[C@H]([C@@H](C)O)NC(=O)[C@H](CCN)NC(=O)[C@H](CCN)NC(=O)[C@H](CC(C)C)NC(=O)[C@@H](CC(C)C)NC(=O)[C@H](CCN)NC1=O)[C@@H](C)O [Compound 70, (S)-6-methyloctanoyl-Dab-Thr-Dab-ring(4-10)[Dab-Dab-D-Leu-Leu-Dab-Dab-Thr]] (X2-[Dab]T[Dab][Dab][Dab][dL]L[Dab][Dab]T; lactam 4-C)",–,–,–,–,–,1,1,2,64,1
"CC(C)CCCCC(=O)N[C@@H](CCN)C(=O)N[C@H](C(=O)N[C@@H](CCN)C(=O)N[C@H]1CCNC(=O)[C@H]([C@@H](C)O)NC(=O)[C@H](CCN)NC(=O)[C@H](CCN)NC(=O)[C@H](CC(C)C)NC(=O)[C@@H](CC(C)C)NC(=O)[C@H](CCN)NC1=O)[C@@H](C)O [Compound 74, 6-methylheptanoyl-Dab-Thr-Dab-ring(4-10)[Dab-Dab-D-Leu-Leu-Dab-Dab-Thr]] ({Heptanoyl(6-Me)}-[Dab]T[Dab][Dab][Dab][dL]L[Dab][Dab]T; lactam 4-C)",0.5,0.5,2,64,–,–,–,–,–,1
"CCCCCCCC(=O)N[C@@H](CCN)C(=O)N[C@H](C(=O)N[C@@H](CCN)C(=O)N[C@H]1CCNC(=O)[C@H]([C@@H](C)O)NC(=O)[C@H](CCN)NC(=O)[C@H](CCN)NC(=O)[C@H](CC(C)C)NC(=O)[C@@H](CC(C)C)NC(=O)[C@H](CCN)NC1=O)[C@@H](C)O [Compound 78, octanoyl-Dab-Thr-Dab-ring(4-10)[Dab-Dab-D-Leu-Leu-Dab-Dab-Thr]] (Octanoyl-[Dab]T[Dab][Dab][Dab][dL]L[Dab][Dab]T; lactam 4-C)",0.5,0.5,1,32,0.5,–,–,–,–,–
